From EP4768018A1, “TOPICAL GEL FOR JAK INHIBITOR AND USE THEREOF” (Prime Gene Therapeutics Co., Ltd., priority 2023, dated 2025)
In brackets after ≈: the same amount, converted by molar mass.

Legend:
[1] = Solubility of crystal forms in 20% propylene glycol at 32°C; type: physicochemical
Protocol: (§1) Solubility Study of Various Crystal Forms
Solubility in 20% Propylene Glycol at 32°C (µg/mL)

[2] = Solubility of crystal forms at different pH (37°C, 24 h); type: physicochemical
Protocol: as §1
Solubility Measurement Results (37°C, 24 h)

[3] = Long-term (24 months) stability study of crystal forms; type: physicochemical
Protocol: In accordance with the stability study guidelines issued by the China's National Medical Products Administration (NMPA), stability studies were conducted on Crystal Forms I, IIa, and IIb. Samples were packaged in pharmaceutical low-density polyethylene bags, and long-term stability (24 months) was evaluated.

[4] = Transdermal test of crystal forms as topical gel in rats (permeation, drug content in skin by LC/MS/MS); type: in vivo, rat; details: topical gel according to the compositions of Example 1; FIG. 10A and FIG. 10B; Crystal Form I versus Crystal Form IIb
Protocol: Crystal Forms I and IIb were prepared into topical gel formulations according to the compositions of Example 1, and transdermal tests were immediately conducted to determine their respective transdermal rates.
Blood samples were collected at 0.25, 0.5, 1, 2, 4, 6, 8, and 24 hours after topical administration. Using a small animal anesthesia machine, 0.3 mL of whole blood was collected from the retro-orbital venous plexus under isoflurane anesthesia and placed in heparin anticoagulant tubes. Samples were centrifuged at 4°C, 4000 rpm for 5 minutes, plasma was transferred to centrifuge tubes, and stored at -80°C until analysis. Samples in plasma were extracted using protein precipitation, and the extract was analyzed by LC/MS/MS. After the test, the drug on skin was washed off, and the rat skin at administration site was excised, homogenized, and analyzed by LC/MS/MS for drug content in the skin. Table 4 Drug Concentration in Skin 24 h After Topical Administration

[5] = Crystal form conversion (room temperature; in the gel formulation, XRPD); type: physicochemical; details: after 3 days; XRPD, FIG. 5 to FIG. 6
Protocol: Crystal Form IIa converts to Crystal Form IIb within 1 hour at room temperature (58.6% RH). During the preparation of topical gel formulation, Crystal Form I and Crystal Form IIb were respectively used as active pharmaceutical ingredients.

Compound: CC(C)S(=O)(=O)N1CC(CC#N)(n2cc(-c3ncnc4[nH]ccc34)c(N)n2)C1 [Crystal Form I, 2-{3-[3-amino-4-(7H-pyrrolo[2,3-d]pyrimidin-4-yl)-1H-pyrazol-1-yl]-1-(isopropylsulfonyl)azetidin-3-yl}acetonitrile Crystal Form I]
- Solubility in 20% Propylene Glycol at 32°C ([1]; 10 min): 12.7 µg/mL (≈ 31.7 µM)
- Solubility in 20% Propylene Glycol at 32°C ([1]; 30 min): 26.9 µg/mL (≈ 67.2 µM)
- Solubility in 20% Propylene Glycol at 32°C ([1]; 1 h, 60 min): 35.8 µg/mL (≈ 89.4 µM)
- Solubility in 20% Propylene Glycol at 32°C ([1]; 2 h, 120 min): 42.1 µg/mL (≈ 105 µM)
- Solubility Conc. ([2]; pH 1.0, 1440 min): 464.2 µg/mL (≈ 1160 µM)
- Solubility Conc. ([2]; pH 2.0, 1440 min): 37.8 µg/mL (≈ 94.4 µM)
- Solubility Conc. ([2]; pH 3.8, 1440 min): 2.3 µg/mL (≈ 5.74 µM)
- Solubility Conc. ([2]; pH 4.5, 1440 min): 1.8 µg/mL (≈ 4.49 µM)
- Solubility Conc. ([2]; pH 5.5, 1440 min): 1.6 µg/mL (≈ 4 µM)
- Appearance ([3]; 0 month): Off-white powder
- Content ([3]; 0 month): 99.9%
- Loss on Drying ([3]; 0 month): 0.08%
- Related Substances Max Unknown Single Impurity ([3]; 0 month): 0.17%
- Related Substances Total Impurity ([3]; 0 month): 0.58%
- Appearance ([3]; 3 month): Off-white powder
- Loss on Drying ([3]; 3 month): 0.06%
- Related Substances Max Unknown Single Impurity ([3]; 3 month): 0.16%
- Related Substances Total Impurity ([3]; 3 month): 0.57%
- Content ([3]; 3 month, 131040 min): 100.1%
- Appearance ([3]; 6 month): Off-white powder
- Loss on Drying ([3]; 6 month): 0.08%
- Related Substances Max Unknown Single Impurity ([3]; 6 month): 0.17%
- Related Substances Total Impurity ([3]; 6 month): 0.57%
- Content ([3]; 6 month, 263520 min): 100.0%
- Appearance ([3]; 9 month): Off-white powder
- Loss on Drying ([3]; 9 month): 0.11%
- Related Substances Max Unknown Single Impurity ([3]; 9 month): 0.17%
- Related Substances Total Impurity ([3]; 9 month): 0.57%
- Content ([3]; 9 month, 394560 min): 99.8%
- Appearance ([3]; 12 month): Off-white powder
- Loss on Drying ([3]; 12 month): 0.09%
- Related Substances Max Unknown Single Impurity ([3]; 12 month): 0.17%
- Related Substances Total Impurity ([3]; 12 month): 0.55%
- Content ([3]; 12 month, 525600 min): 99.9%
- Appearance ([3]; 18 month): Off-white powder
- Loss on Drying ([3]; 18 month): 0.12%
- Related Substances Max Unknown Single Impurity ([3]; 18 month): 0.18%
- Related Substances Total Impurity ([3]; 18 month): 0.62%
- Content ([3]; 18 month, 789120 min): 99.7%
- Appearance ([3]; 24 month): Off-white powder
- Loss on Drying ([3]; 24 month): 0.10%
- Related Substances Max Unknown Single Impurity ([3]; 24 month): 0.16%
- Related Substances Total Impurity ([3]; 24 month): 0.59%
- Content ([3]; 24 month, 1.0512e+06 min): 99.8%
- stability study result in words ([3]; 24 months): good chemical stability
- transdermal performance [4]: better transdermal performance
- crystal form of the active pharmaceutical ingredient in the final gel formulation [5]: exclusively in form IIb
